Test results as given in US8283370B2, “Imidazolidinedione derivatives as antimalarial agents, preparation thereof, and methods of use” (The United States of America as Represented by the …, priority 2008, dated 2012).
Where “and” joins values, the source holds several entries; their conditions need not be identical. Equal entries are not always repeated.

Experiments:
Type in all cases: in vivo
[1] = test system: P. yoelii sporozoites; assay: Causal prophylactic activity, exoerythrocytic (EE) mouse model, P. yoelii sporozoites; conditions: for P. yoelli # Mice Protected/# Mice Used: 3 days treated; for Causal prophylactic protection in mice (comparison in words): Table 5, compared to control compound 3 or between P. yoelii and P. berghei
Experimental: (§1) New compounds were assessed for their causal prophylactic activity in two different exoerythrocytic (EE) mouse models using sporozoites of either P. berghei or P. yoelii. The procedures have been previously described (see, for example, Q. Zhang et al., J. Med. Chem. 48 (20): 6472-6481 (2005)). Briefly, each compound was ground with a mortar and pestle and suspended in hydroxyethylcellulose and Tween 80 for compounds to be administered PO and those given SC were suspended in peanut oil. Each compound was prepared at different dose levels. Compounds were administered either PO or SC to mice once a day for three consecutive days, to mice on the day before, 4 hours before, and the day after being inoculated intraperitoneally with P. yoelii sporozoites or P. berghei sporozoites intravenously. Whole body weights were taken on Day 0 and Day 6 then approximately twice a week for 31 days. A blood film was taken on Day 5 and then approximately twice a week for 31 days. Mice losing greater than about 20% of their body weight were sacrificed. A compound was considered active if only low levels of parasites were found (less than about 10%) in blood films taken on Day 5 or any biweekly for 31 days. Mice alive on Day 31 with no parasites found in any blood films were considered protected.

[2] = test system: P. berghei sporozoites; assay: Causal prophylactic activity, exoerythrocytic (EE) mouse model, P. berghei sporozoites; conditions: 3 days treated
Experimental: as §1

[3] = test system: P. cynomolgi liver stage hypnozoites; assay: Radical cure test in relapsed Rhesus monkeys
Experimental: Monkeys were treated with chloroquine (10 mg/kg/day) by oral for 7 consecutive days and the test compounds by IM for 3 consecutive days after the parasitemia level reached 5,000 parasites/mm^3. Chloroquine (CQ) at 10 mg/kg/day×7 days eliminates the blood stage parasites, but not the liver stage hypnozoites. Compounds with antihypnozoite activity will delay the relapse or radically cure the infection. To evaluate the radical curative properties, daily blood samples were followed for 21 days, 3 times per week for 4 weeks, and then 2 times weekly until 100 days after the last day of test compound administration. Parasite clearance should occur in all animals treated with chloroquine. Relapse is expected in the control group. Relapse in the treated group indicates failure of the test compounds. […] Relapses of the control monkeys were treated with chloroquine once daily for 7-days and observed for a second relapse. Relapse in experimental animals and the second relapse of the control monkeys were treated with the standard 7-day oral CQ (chloroquine) and primaquine (1.78 mg base/kg). After standard treatment, blood smears were monitored daily for 4 consecutive days of negative results and 2 times weekly for 2 weeks.

[4] = test system: P. cynomolgi sporozoites; assay: Causal prophylactic test in P. cynomolgi sporozoites challenged Rhesus monkeys; conditions: for Causal prophylactic activity in Rhesus test (in words): 30 mg/kg/day for 3 days by IM; for Patency (Days Post-innoculation): one value per monkey, 30 mg/kg 1 daily for 3 days, IM (days -1, 0, +1), 30 mg/kg
Experimental: Among the new compounds prepared, representative compounds 5e, 6c, 7a and 7c were assessed for causal prophylactic and radical cure activities in Rhesus monkeys. To protect the Rhesus monkeys, a test compound must pass a mouse toxicity test at 300 mg/kg/day for 3 consecutive days by SC administration, and mice must not lose more than 5% body weight within 30 days after receiving the test compound.
The causal prophylactic and radical curative antimalarial activity of the new derivatives 5e, 6c, 7a and 7c were assessed in a P. cynomolgi sporozoites challenged Rhesus monkey model. Detailed procedure of sporozoites harvest and drug tests have been described previously (J. Guan et al., Bioorg. Med. Chem. 23, 699-704 (2005); Q. Zhang et al., J. Med. Chem. 48 (20): 6472-6481 (2005)) Briefly, monkeys were randomized to control groups and experimental groups. A donor monkey was inoculated intravenously with 1.3 mL freshly-thawed frozen infected red blood cells (DA310). When the donor monkey developed gametocytemia, mosquito feedings were conducted on days 13 and 14 after inoculation. The donor monkey was treated with intramuscular chloroquine hydrochloride (CQ) 10 mg/kg, once a day after the second mosquito feeding and continued for 7 days. On day 0 (beginning of assay), each of the monkeys was inoculated intravenously with 1-ml inoculum of suspension containing about 1.0×10^6 (one million) P. cynomolgi sporozoites harvested from Anopheles dirus mosquitoes' salivary glands previously fed on the donor monkey (See, for example, Corcoran, K D, et al. (1993) Am. J. Trop. Med. Hyg. 49:473 477, and Shanks, G D, et al. (2001) Clinical Infectious Diseases 33:1968 1974). All monkeys received treatment on days −1, 0 and 1. The control monkeys received dimethylsulfoxide (DMSO) and the experimental animals received testing compound intramusculary. After the assay, all monkeys were given standard malarial treatment. Specifically, seven-day primaquine (1.78 mg/kg) and chloroquine (10 mg/kg) were administered to treat all monkeys.

[5] = one value per monkey, 30 mg/kg 1 daily for 3 days IM with CQ 10 mg/kg x7 po

Row | SMILES | P. yoelli # Mice Protected/# Mice Used ([1]; Dose/day 10 mg/kg) | P. yoelli # Mice Protected/# Mice Used ([1]; Dose/day 40 mg/kg) | P. yoelli # Mice Protected/# Mice Used ([1]; Dose/day 160 mg/kg) | P. berghei # Mice Protected/# Mice Used ([2]; Dose/day 40 mg/kg) | P. berghei # Mice Protected/# Mice Used ([2]; Dose/day 160 mg/kg) | Delayed relapse, Days Post-treatment [3, 5] | Causal prophylactic activity in Rhesus test (in words) [4] | Patency (Days Post-innoculation) [4] | other results
1 | CC(C)N1C(=O)C(=O)N=C1/N=C(\NC(=O)OC(C)(C)C)Nc1ccc(Cl)c(Cl)c1 [Compound 3, reference compound] | 3/5 | 2/5 | 4/5 | 2/10 | 4/10 | – | – | – | –
2 | CCC(CC)C(=O)NC(=NC1=NC(=O)C(=O)N1C(C)C)Nc1ccc(Cl)c(Cl)c1 [Compound 7a] | – | – | – | – | – | 16 days | weak causal prophylactic activity | 13 days and 17 days | Delayed relapse, days longer as compared with control animals ([3]; 30 mg/kg 1 daily for 3 days IM with CQ 10 mg/kg x7 po): 7 days; Results (radical cure, in words) ([3]; 30 mg/kg 1 daily for 3 days IM with CQ 10 mg/kg x7 po, no relapse after 100 days = radically cured): One out of two monkeys treated with 7a was cured and Cure
3 | CC(C)NC(=NC1=NC(=O)C(=O)N1C(C)C)Nc1ccc(Cl)c(Cl)c1 [Compound 6c] | – | – | – | 0/5 | 1/5 | 66 days and 91 days | most potent causal prophylactic activity | 62 days and 94 days | Radical curative efficacy (in words) ([3]; test compound IM for 3 days with CQ po for 7 days): more active than 5e, 7a and 7c
4 | CC(C)N1C(=O)C(=O)N=C1N=C(NC(=O)C(C)(C)C)Nc1ccc(Cl)c(Cl)c1 [Compound 7c] | – | – | – | – | – | – | superior protective activity than that of 7a | 21 days and 40 days | Delayed relapse, days longer as compared with control animals ([3]; 40 mg/kg 1 daily for 3 days IM with CQ 10 mg/kg x7 po): 20 days and 23 days; Delayed relapse, Days Post-treatment ([3]; one value per monkey, 40 mg/kg 1 daily for 3 days IM with CQ 10 mg/kg x7 po): 29 days and 32 days
5 | CC(C)N1C(=O)C(=O)N=C1N=C(Nc1ccccc1)Nc1ccc(Cl)c(Cl)c1 [Compound 6f] | 5/5 | 5/5 | 5/5 | 0/5 | 0/5 | – | – | – | Causal prophylactic protection in mice (comparison in words) [1]: enhanced protection
6 | CCN(CC)CCCC(C)Nc1ccnc2cc(Cl)ccc12 (centres unmarked) [CQ, chloroquine, reference compound] | – | – | – | – | – | – | – | – | Relapse, Days Post-treatment ([3]; one value per monkey, CQ 10 mg/kg x7 po alone (Drug 2 none)): 9 days
7 | CC(C)N1C(=O)C(=O)N=C1N=C(NOCc1ccccc1)Nc1ccc(Cl)c(Cl)c1 [Compound 5e] | – | – | – | 0/5 | 0/5 | 35 days and 33 days | about equal in causal prophylactic activity to 7c | 27 days and 29 days | –
8 | CC(C)N1C(=O)C(=O)N=C1N=C(NCC(C)(C)C)Nc1ccc(Cl)c(Cl)c1 [Compound 6e] | 5/5 | 5/5 | 5/5 | 0/5 | 1/5 | – | – | – | Causal prophylactic protection in mice (comparison in words) [1]: enhanced protection
